Data taken from ChEMBL document CHEMBL1201862, “PubChem BioAssay data set” (2004).
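Protocol summary: plate cells (96-well), add compound at 5 concentrations, incubate 48 h, interpolate endpoints linearly. GI50: concentration for 50% inhibition of growth.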 Calls of active or inactive are those of the source. Rule as the data show it: active = GI50 up to about 1.1 µM and inactive = higher.

Columns and labels:
Test in all cases: inhibition of tumour cell growth, NCI panel, 48 h
U-251 = test system: U-251
KM-20L2 = test system: KM-20L2
RXF 393 = test system: RXF 393
NCI-H23 = test system: NCI-H23
HCT-116 = test system: HCT-116
ACHN = test system: ACHN
MOLT-4 = test system: MOLT-4
SNB-19 = test system: SNB-19
HOP-62 = test system: HOP-62
SK-MEL-28 = test system: SK-MEL-28
NCI-H522 = test system: NCI-H522
SF-539 = test system: SF-539
OVCAR-3 = test system: OVCAR-3
OVCAR-8 = test system: OVCAR-8
HCT-15 = test system: HCT-15

SMILES	GI50 (U-251)	GI50 (KM-20L2)	GI50 (RXF 393)	GI50 (NCI-H23)	GI50 (HCT-116)	GI50 (ACHN)	GI50 (MOLT-4)	GI50 (SNB-19)	GI50 (HOP-62)	GI50 (SK-MEL-28)	GI50 (NCI-H522)	GI50 (SF-539)	GI50 (OVCAR-3)	GI50 (OVCAR-8)	GI50 (HCT-15)
O=C(OCc1ccccc1)n1cccc1	> 100 µM (inactive)	> 100 µM (inactive)	> 100 µM (inactive)	98.6 µM (inactive)	84.9 µM (inactive)	> 100 µM (inactive)	76.9 µM (inactive)	> 100 µM (inactive)	> 100 µM (inactive)	> 100 µM (inactive)	> 100 µM (inactive)	> 100 µM (inactive)	> 100 µM (inactive)	> 100 µM (inactive)	
CCC12C[N+]3([O-])CCc4c([nH]c5ccccc45)C(C(=O)OC)(c4cc5c(cc4OC)N(C)C4C(O)(C(=O)OC)C(OC(C)=O)C6(CC)C=CCN7CCC54C76)CC(C3)C1O2 (stereo unspecified)	1.04 µM (active)	0.256 µM (active)	0.693 µM (active)	0.465 µM (active)	0.41 µM (active)	10.5 µM (inactive)	0.406 µM (active)	0.597 µM (active)	23.7 µM (inactive)	0.236 µM (active)	0.063 µM (active)	0.28 µM (active)	0.337 µM (active)	2.67 µM (inactive)	4.47 µM
O=C(c1ccccc1)C(c1ccccc1)C1(O)C(=O)Nc2ccc(Br)cc21 (stereo unspecified)	65 µM (inactive)	> 100 µM (inactive)	> 100 µM (inactive)	50.4 µM (inactive)	37.9 µM (inactive)	> 100 µM (inactive)	23.6 µM (inactive)	> 100 µM (inactive)	59.3 µM (inactive)	46.1 µM (inactive)	20.9 µM (inactive)	44.9 µM (inactive)	45.6 µM (inactive)	52.8 µM (inactive)	60.1 µM
Cc1c(C(=O)C/C(=N/NC(=O)C[N+](C)(C)C)C(=O)Nc2ccc(Cl)cc2)[n+]([O-])c2ccccc2[n+]1[O-]	> 100 µM (inactive)	> 100 µM (inactive)	> 100 µM (inactive)	> 100 µM (inactive)	> 100 µM (inactive)	> 100 µM (inactive)	> 100 µM (inactive)	> 100 µM (inactive)	> 100 µM (inactive)	> 100 µM (inactive)	> 100 µM (inactive)	> 100 µM (inactive)	> 100 µM (inactive)	> 100 µM (inactive)	> 100 µM
CN(C)C(=S)Nc1nnc(NC23CC4CC(CC(C4)C2)C3)s1.[O-][Cl+3]([O-])([O-])O	12.2 µM (inactive)	11.1 µM (inactive)	17.1 µM (inactive)	10 µM (inactive)	13.3 µM (inactive)	21.8 µM (inactive)	14.8 µM (inactive)	18.3 µM (inactive)	18.6 µM (inactive)	15 µM (inactive)	16.1 µM (inactive)	10 µM (inactive)	18.7 µM (inactive)	26.7 µM (inactive)	13.6 µM
CSc1nc2c(nc(N)n2C2OC(CO)C(O)C(O)C2O)c(=O)[nH]1 (stereo unspecified)	> 100 µM (inactive)	> 100 µM (inactive)	> 100 µM (inactive)	> 100 µM (inactive)	> 100 µM (inactive)	> 100 µM (inactive)	> 100 µM (inactive)	> 100 µM (inactive)	> 100 µM (inactive)	> 100 µM (inactive)	> 100 µM (inactive)	> 100 µM (inactive)	> 100 µM (inactive)	> 100 µM (inactive)	
CC1=C2C(=CC(C)(C)C2O)C(=O)C(C)(O)C12CC2 (stereo unspecified)	0.0059 µM (active)	0.00521 µM (active)	0.00752 µM (active)	0.00681 µM (active)	0.00325 µM (active)	0.00479 µM (active)	0.00253 µM (active)	0.019 µM (active)	0.0119 µM (active)	0.0247 µM (active)	0.00469 µM (active)	0.0209 µM (active)	0.0112 µM (active)	0.00948 µM (active)	0.00393 µM
O=c1[nH]c(=O)n(C2OC(COP(=O)(O)OP(=O)(O)OC3OC(CO)C(O)C(O)C3O)C(O)C2O)cc1F (stereo unspecified)	0.0577 µM (active)	0.101 µM (active)	0.0522 µM (active)	0.147 µM (active)	< 0.0129 µM (active)	0.0217 µM (active)	0.0522 µM (active)	0.156 µM (active)	0.302 µM (active)	0.229 µM (active)	0.327 µM (active)	0.0552 µM (active)	0.552 µM (active)	0.0966 µM (active)	0.0384 µM
O=C1N(c2ccc(Cl)cc2)C(=O)C2(SC=NN2Cc2ccccc2)N1c1ccc(Cl)cc1 (stereo unspecified)	> 100 µM (inactive)	> 100 µM (inactive)	37.9 µM (inactive)	8.24 µM (inactive)	9.18 µM (inactive)	> 100 µM (inactive)	7.87 µM (inactive)	> 100 µM (inactive)	> 100 µM (inactive)	> 100 µM (inactive)	7.76 µM (inactive)	34.3 µM (inactive)	51.1 µM (inactive)	> 100 µM (inactive)	
Cc1cc(=O)oc2cc(OCc3nc4ccccc4c(=O)[nH]3)ccc12	> 100 µM (inactive)	> 100 µM (inactive)	> 100 µM (inactive)	> 100 µM (inactive)	> 100 µM (inactive)	> 100 µM (inactive)	> 100 µM (inactive)	> 100 µM (inactive)	> 100 µM (inactive)	> 100 µM (inactive)	> 100 µM (inactive)	> 100 µM (inactive)	> 100 µM (inactive)	> 100 µM (inactive)	> 100 µM
COc1cc(/C=C2\NC(=O)C3Cc4c(OC)c(C)c(OC)c(OC)c4C2N3C)c(OC)c(C)c1OC (stereo unspecified)	> 100 µM (inactive)	> 100 µM (inactive)	85.3 µM (inactive)	> 100 µM (inactive)	> 100 µM (inactive)	> 100 µM (inactive)	44.2 µM (inactive)	> 100 µM (inactive)	> 100 µM (inactive)	> 100 µM (inactive)	99.5 µM (inactive)	> 100 µM (inactive)	> 100 µM (inactive)	> 100 µM (inactive)	
C/C(=N\NC(=S)NC(CCC(=O)O)C(=O)O)c1ccccn1 (stereo unspecified)	> 100 µM (inactive)	> 100 µM (inactive)	> 100 µM (inactive)	> 100 µM (inactive)	> 100 µM (inactive)	> 100 µM (inactive)	> 100 µM (inactive)	> 100 µM (inactive)	> 100 µM (inactive)	> 100 µM (inactive)	> 100 µM (inactive)	> 100 µM (inactive)	> 100 µM (inactive)	> 100 µM (inactive)	> 100 µM
CC(C)C1=CC23CCC4C(C)(C(=O)O)CCCC4(C)C2CC1C1C(=O)N(c2ccccc2)C(=O)C13 (stereo unspecified)	36.6 µM (inactive)	39.6 µM (inactive)	27.4 µM (inactive)	> 100 µM (inactive)	39.1 µM (inactive)	28.1 µM (inactive)	> 100 µM (inactive)	46.9 µM (inactive)	51.3 µM (inactive)	53.2 µM (inactive)	49.1 µM (inactive)	51.3 µM (inactive)	33.7 µM (inactive)	64 µM (inactive)	30.9 µM
